Results reported in the supplement of paper PMC10307832.

What was measured:
Experiment in all cases: relative viability (nuclei count vs DMSO), 5 days (fraction); higher = more cells survive
BAY61-3606 + OSI-027 = compound: COC1=C(C=C(C=C1)C2=CC3=NC=CN3C(=N2)NC4=C(C=CC=N4)C(=O)N)OC [BAY61-3606] + COc1cccc2cc(-c3nc([C@H]4CC[C@H](C(=O)O)CC4)n4ncnc(N)c34)[nH]c12 [OSI-027] (partner 0.5 µM)
Method in brief: (§1)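 Values are medians from duplicate plates. Each reflects relative viability, defined as the nuclei count of treated wells over that of vehicle wells. Lung cancer cell lines in 1536-well plates were pin-tool dosed one day after seeding with one drug alone or with a fixed anchor-drug dose plus five library-drug doses (not always all listed) in √10 steps, then fixed, stained and imaged at 4× after 5 days.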

Doxorubicin + Linsitinib = compound: COc1cccc2c1C(=O)c1c(O)c3c(c(O)c1C2=O)C[C@@](O)(C(=O)CO)C[C@@H]3O[C@H]1C[C@H](N)[C@H](O)[C@H](C)O1 [Doxorubicin] + C[C@]1(O)C[C@@H](c2nc(-c3ccc4ccc(-c5ccccc5)nc4c3)c3c(N)nccn32)C1 [Linsitinib] (partner 1 µM)
Method in brief: as §1

BAY61-3606 + Vorinostat = compound: COC1=C(C=C(C=C1)C2=CC3=NC=CN3C(=N2)NC4=C(C=CC=N4)C(=O)N)OC [BAY61-3606] + O=C(CCCCCCC(=O)Nc1ccccc1)NO [Vorinostat] (partner 1 µM)
Method in brief: as §1

Doxorubicin + Navitoclax = compound: COc1cccc2c1C(=O)c1c(O)c3c(c(O)c1C2=O)C[C@@](O)(C(=O)CO)C[C@@H]3O[C@H]1C[C@H](N)[C@H](O)[C@H](C)O1 [Doxorubicin] + CC1(C)CCC(c2ccc(Cl)cc2)=C(CN2CCN(c3ccc(C(=O)NS(=O)(=O)c4ccc(N[C@H](CCN5CCOCC5)CSc5ccccc5)c(S(=O)(=O)C(F)(F)F)c4)cc3)CC2)C1 [Navitoclax] (partner 0.5 µM)
Method in brief: as §1

| Cell Line | relative viability (BAY61-3606 + OSI-027; first compound 0.02 µM) | relative viability (BAY61-3606 + OSI-027; first compound 0.06325 µM) | relative viability (BAY61-3606 + OSI-027; first compound 0.2 µM) | relative viability (BAY61-3606 + OSI-027; first compound 0.6325 µM) | relative viability (BAY61-3606 + OSI-027; first compound 2 µM) | relative viability (Doxorubicin + Linsitinib; first compound 0.001 µM) | relative viability (Doxorubicin + Linsitinib; first compound 0.003162 µM) | relative viability (Doxorubicin + Linsitinib; first compound 0.01 µM) | relative viability (Doxorubicin + Linsitinib; first compound 0.03162 µM) | relative viability (Doxorubicin + Linsitinib; first compound 0.1 µM) | relative viability (BAY61-3606 + Vorinostat; first compound 0.02 µM) | relative viability (BAY61-3606 + Vorinostat; first compound 0.06325 µM) | relative viability (BAY61-3606 + Vorinostat; first compound 0.2 µM) | relative viability (BAY61-3606 + Vorinostat; first compound 0.6325 µM) | relative viability (BAY61-3606 + Vorinostat; first compound 2 µM) | relative viability (Doxorubicin + Navitoclax; first compound 0.001 µM) | relative viability (Doxorubicin + Navitoclax; first compound 0.003162 µM) | relative viability (Doxorubicin + Navitoclax; first compound 0.01 µM) | relative viability (Doxorubicin + Navitoclax; first compound 0.03162 µM) | relative viability (Doxorubicin + Navitoclax; first compound 0.1 µM) |
| --- | --- | --- | --- | --- | --- | --- | --- | --- | --- | --- | --- | --- | --- | --- | --- | --- | --- | --- | --- | --- |
| BEN | 0.336 | 0.316 | 0.316 | 0.285 | 0.276 | 0.984 | 0.863 | 0.983 | 0.621 | 0.79 | 0.545 | 0.577 | 0.573 | 0.546 | 0.588 | 0.0762 | 0.071 | 0.0683 | 0.0474 | 0.0661 |
| CAL-12T | 0.674 | 0.593 | 0.616 | 0.605 | 0.269 | 0.783 | 0.858 | 0.762 | 0.432 | 0.48 | 0.827 | 0.859 | 0.725 | 0.81 | 0.576 | 1.09 | 1.16 | 1.24 | 0.423 | 0.182 |
| COR-L23 | 0.764 | 0.806 | 0.712 | 0.778 | 0.496 | 0.881 | 1.08 | 0.908 | 0.331 | 0.18 | 0.564 | 0.5 | 0.511 | 0.491 | 0.323 | 1.03 | 1.12 | 0.82 | 0.63 | 0.169 |
| COR-L 105 | 0.843 | 0.645 | 0.726 | 0.704 | 0.468 | 1.05 | 1.04 | 0.955 | 0.557 | 0.433 | 0.938 | 0.947 | 0.734 | 0.791 | 0.746 | 0.965 | 0.721 | 0.724 | 0.48 | 0.377 |
| EKVX | 0.862 | 0.696 | 0.734 | 0.554 | 0.631 | 0.996 | 0.922 | 0.957 | 1.11 | 0.879 | 0.84 | 0.685 | 0.658 | 0.783 | 0.775 | 0.929 | 1.09 | 1 | 0.853 | 0.61 |
| EMC-BAC-2 | 0.391 | 0.391 | 0.356 | 0.363 | 0.318 | 0.797 | 0.864 | 0.84 | 0.854 | 0.776 | 0.499 | 0.385 | 0.6 | 0.42 | 0.425 | 1.16 | 1.25 | 1.16 | 1.19 | 1.15 |
| EPLC-272H | 0.269 | 0.268 | 0.267 | 0.329 | 0.333 | 0.936 | 1.45 | 1.4 | 1.18 | 1.13 | 0.402 | 0.401 | 0.579 | 0.339 | 0.37 | 1.11 | 1.37 | 0.971 | 1.11 | 1.05 |
| H3255 | 0.529 | 0.549 | 0.642 | 0.736 | 0.546 | 0.906 | 1.07 | 0.908 | 0.9 | 0.938 | 0.817 | 0.8 | 0.749 | 0.75 | 0.86 | 0.603 | 0.617 | 0.53 | 0.457 | 0.289 |
| HARA | 0.554 | 0.463 | 0.513 | 0.536 | 0.311 | 0.974 | 1.03 | 0.922 | 0.798 | 1.04 | 0.547 | 0.47 | 0.415 | 0.462 | 0.466 | 1.17 | 1.09 | 1.18 | 1.05 | 1.15 |
| HCC-15 | 0.704 | 0.613 | 0.721 | 0.693 | 0.553 | 0.878 | 0.842 | 0.927 | 0.795 | 0.725 | 0.976 | 0.915 | 0.866 | 0.945 | 0.803 | 0.707 | 0.716 | 0.705 | 0.665 | 0.634 |
| HCC-44 | 0.562 |  | 0.474 | 0.583 | 0.548 | 0.686 | 0.667 | 0.621 | 0.69 | 0.753 | 1.05 | 1.05 | 1 | 0.966 | 1.26 | 1.01 | 1.15 | 0.969 | 1.01 | 1.03 |
| HCC-78 | 0.411 | 0.393 | 0.404 | 0.351 | 0.427 | 0.539 | 0.454 | 0.493 | 0.491 | 0.47 | 0.432 | 0.423 | 0.444 | 0.553 | 0.41 | 0.41 | 0.689 | 0.753 | 0.692 | 0.768 |
| HCC-366 | 1.07 | 0.875 | 0.81 | 0.862 | 0.715 |  | 0.392 | 0.706 | 0.52 | 0.512 | 0.383 | 0.385 | 0.175 | 0.345 | 0.244 |  | 1.03 | 0.99 | 0.809 | 1.07 |
| HCC-827 | 0.698 | 0.845 | 0.817 | 0.803 | 0.787 | 0.922 | 0.965 | 0.969 | 0.921 | 0.921 | 0.858 | 0.828 | 1.04 | 0.85 | 0.941 | 1.03 | 1.03 | 1.06 | 1.1 | 1.03 |
| HOP-62 | 0.859 | 0.838 | 0.774 | 0.786 | 0.714 | 0.954 | 1.04 | 1.11 | 1.17 | 1.04 |  | 0.544 | 0.538 | 0.667 | 0.397 | 1.06 | 0.927 | 0.988 | 0.944 | 1.01 |
